These results are taken from patent US9586968B2, “Bicycloamine-substituted-N-benzenesulfonamide compounds with selective activity in voltage-gated sodium channels” (Merck Sharp & Dohme Corp., priority 2013, dated 2017).

One test addresses T1, human Nav1.5 (Homo sapiens, UniProt Q14524).
T1 construct: expressed in transfected cells
The experiment in a line: PatchXpress automated patch-clamp, inactivated state block of Nav1.5 (selectivity). The note with it: determined by PatchXpress measurement, HEK 293 cells. The class given is cell-based. Put shortly: (§1)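 HEK 293 cells stably expressing the channel, recorded at 22° C on PatchXpress with a double-pulse protocol: hold 20 mV negative to V0.5 inact, 8000 ms prepulse 7 mV positive to V0.5 inact, 2 ms step to −120 mV, 20 ms test pulse to −20 mV. Rundown-corrected inhibition fitted to Hill equation for IC50.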
A general note: Patch clamp records ionic current or voltage across a cell membrane.

Another test addresses T2, human Nav1.7 (Homo sapiens, UniProt Q15858).
T2 construct: expressed in transfected cells
The experiment in a line: PatchXpress automated patch-clamp, inactivated state block of Nav1.7. The test is classed as cell-based. Conditions: channels stably expressed in HEK 293 cells, 22° C., read-out: potency for the Nav 1.7 sodium ion channel (as measured by PatchXpress). Put shortly: as §1

T1 sequence (Q14524 whole entry): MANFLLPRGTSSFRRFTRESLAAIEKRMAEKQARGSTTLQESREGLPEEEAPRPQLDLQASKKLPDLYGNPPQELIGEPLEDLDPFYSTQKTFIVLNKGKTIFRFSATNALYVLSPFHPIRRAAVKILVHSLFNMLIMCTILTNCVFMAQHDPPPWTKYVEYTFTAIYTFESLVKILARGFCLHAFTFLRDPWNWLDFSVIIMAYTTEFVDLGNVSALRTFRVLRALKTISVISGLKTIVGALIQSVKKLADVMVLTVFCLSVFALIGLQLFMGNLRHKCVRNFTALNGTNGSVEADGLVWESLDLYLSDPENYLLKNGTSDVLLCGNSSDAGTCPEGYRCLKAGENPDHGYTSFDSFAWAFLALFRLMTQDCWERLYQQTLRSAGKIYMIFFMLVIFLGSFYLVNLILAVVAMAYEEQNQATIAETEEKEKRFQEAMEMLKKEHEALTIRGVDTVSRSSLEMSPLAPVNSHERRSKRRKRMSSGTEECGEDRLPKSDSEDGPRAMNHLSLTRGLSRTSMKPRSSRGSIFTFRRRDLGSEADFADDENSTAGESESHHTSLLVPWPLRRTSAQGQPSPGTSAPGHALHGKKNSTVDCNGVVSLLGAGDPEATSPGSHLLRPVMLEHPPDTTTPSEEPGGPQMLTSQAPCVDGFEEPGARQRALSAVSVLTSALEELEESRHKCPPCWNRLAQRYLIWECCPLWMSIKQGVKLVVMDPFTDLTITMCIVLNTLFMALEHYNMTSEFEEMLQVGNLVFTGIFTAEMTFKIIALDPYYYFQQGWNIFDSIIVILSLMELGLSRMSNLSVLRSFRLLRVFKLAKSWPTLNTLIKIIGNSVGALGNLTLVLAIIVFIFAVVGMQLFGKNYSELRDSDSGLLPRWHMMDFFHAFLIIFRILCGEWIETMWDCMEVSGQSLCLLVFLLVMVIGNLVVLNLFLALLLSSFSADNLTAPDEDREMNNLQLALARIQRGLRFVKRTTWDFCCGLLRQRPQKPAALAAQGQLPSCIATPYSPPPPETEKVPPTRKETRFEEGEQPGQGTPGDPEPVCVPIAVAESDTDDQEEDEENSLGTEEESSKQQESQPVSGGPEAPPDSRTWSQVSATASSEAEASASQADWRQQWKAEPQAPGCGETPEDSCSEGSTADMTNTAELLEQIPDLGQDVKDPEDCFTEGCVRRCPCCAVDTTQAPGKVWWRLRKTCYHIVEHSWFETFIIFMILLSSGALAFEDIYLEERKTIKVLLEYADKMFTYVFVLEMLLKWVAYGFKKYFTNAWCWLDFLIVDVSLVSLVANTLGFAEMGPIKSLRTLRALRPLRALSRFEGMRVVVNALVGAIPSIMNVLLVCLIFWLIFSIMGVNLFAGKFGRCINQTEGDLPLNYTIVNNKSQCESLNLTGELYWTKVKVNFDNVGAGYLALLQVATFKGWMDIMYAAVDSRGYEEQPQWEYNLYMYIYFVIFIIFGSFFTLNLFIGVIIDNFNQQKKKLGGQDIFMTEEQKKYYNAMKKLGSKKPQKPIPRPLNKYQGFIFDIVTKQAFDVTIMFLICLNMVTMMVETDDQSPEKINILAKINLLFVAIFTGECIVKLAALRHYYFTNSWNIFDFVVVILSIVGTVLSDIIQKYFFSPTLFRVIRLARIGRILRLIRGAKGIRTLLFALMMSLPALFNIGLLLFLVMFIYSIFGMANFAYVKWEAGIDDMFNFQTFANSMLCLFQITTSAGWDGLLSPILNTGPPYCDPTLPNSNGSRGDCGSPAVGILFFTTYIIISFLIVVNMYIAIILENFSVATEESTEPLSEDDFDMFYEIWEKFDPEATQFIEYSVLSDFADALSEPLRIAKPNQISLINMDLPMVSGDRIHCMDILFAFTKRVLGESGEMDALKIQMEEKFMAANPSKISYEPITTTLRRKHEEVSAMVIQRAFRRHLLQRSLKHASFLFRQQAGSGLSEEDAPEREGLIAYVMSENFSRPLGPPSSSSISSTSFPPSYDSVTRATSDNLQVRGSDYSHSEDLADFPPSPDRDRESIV
T2 sequence (Q15858 whole entry): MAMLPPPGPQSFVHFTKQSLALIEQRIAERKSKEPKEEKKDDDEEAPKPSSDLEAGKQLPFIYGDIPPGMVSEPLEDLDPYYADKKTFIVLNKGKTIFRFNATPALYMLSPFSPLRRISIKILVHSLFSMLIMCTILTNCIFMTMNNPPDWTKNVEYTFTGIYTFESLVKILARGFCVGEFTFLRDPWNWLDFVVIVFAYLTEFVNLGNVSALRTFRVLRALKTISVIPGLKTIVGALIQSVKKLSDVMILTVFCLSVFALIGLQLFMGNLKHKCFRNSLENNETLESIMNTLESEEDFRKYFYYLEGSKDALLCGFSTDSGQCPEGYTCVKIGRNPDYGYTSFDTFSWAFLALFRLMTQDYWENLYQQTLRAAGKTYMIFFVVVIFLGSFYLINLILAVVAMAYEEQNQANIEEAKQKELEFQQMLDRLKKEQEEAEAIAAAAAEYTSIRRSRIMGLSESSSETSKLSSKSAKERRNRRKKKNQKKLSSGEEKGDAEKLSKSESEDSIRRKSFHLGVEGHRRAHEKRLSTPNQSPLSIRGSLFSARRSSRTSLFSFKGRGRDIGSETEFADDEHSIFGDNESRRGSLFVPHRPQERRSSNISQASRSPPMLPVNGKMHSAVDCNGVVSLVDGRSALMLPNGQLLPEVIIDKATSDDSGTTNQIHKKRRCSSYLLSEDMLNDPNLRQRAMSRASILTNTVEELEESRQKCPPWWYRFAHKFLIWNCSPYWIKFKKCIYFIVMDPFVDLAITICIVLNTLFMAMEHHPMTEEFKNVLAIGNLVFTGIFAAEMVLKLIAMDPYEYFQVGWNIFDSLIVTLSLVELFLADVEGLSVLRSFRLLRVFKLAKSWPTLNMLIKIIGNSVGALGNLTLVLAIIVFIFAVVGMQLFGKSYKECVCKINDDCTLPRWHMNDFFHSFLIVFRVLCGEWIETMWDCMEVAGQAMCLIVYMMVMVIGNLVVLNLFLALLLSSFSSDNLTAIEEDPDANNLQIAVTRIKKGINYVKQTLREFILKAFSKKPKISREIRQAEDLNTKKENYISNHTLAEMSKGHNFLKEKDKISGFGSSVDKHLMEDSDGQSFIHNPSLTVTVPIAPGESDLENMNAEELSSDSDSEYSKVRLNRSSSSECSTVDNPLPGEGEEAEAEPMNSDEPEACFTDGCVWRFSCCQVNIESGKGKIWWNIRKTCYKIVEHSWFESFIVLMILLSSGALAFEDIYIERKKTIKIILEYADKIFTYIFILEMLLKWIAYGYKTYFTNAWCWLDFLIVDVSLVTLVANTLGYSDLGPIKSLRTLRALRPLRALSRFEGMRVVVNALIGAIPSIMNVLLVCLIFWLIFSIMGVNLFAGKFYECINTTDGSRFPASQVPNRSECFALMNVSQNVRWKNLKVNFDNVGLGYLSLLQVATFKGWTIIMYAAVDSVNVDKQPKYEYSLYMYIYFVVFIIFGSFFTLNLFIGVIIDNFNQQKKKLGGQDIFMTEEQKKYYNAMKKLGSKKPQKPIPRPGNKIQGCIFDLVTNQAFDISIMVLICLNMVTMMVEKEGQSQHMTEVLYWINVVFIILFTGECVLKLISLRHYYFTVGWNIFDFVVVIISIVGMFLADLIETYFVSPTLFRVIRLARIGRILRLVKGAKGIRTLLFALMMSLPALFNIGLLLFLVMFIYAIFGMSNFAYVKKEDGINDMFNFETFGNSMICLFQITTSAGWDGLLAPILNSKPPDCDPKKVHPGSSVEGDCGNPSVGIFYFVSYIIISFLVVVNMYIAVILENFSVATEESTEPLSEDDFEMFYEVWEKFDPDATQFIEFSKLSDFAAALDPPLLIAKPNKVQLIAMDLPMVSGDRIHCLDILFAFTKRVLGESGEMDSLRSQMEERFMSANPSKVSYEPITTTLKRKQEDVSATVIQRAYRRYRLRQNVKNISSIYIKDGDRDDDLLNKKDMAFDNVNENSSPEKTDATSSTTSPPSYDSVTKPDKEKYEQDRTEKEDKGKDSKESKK

Turning to `O=S(=O)(Nc1ccc(F)cn1)c1cc(Cl)c(NCC23CCCN2CCC3)cc1F` [Ex3-7, 5-chloro-2-fluoro-N-(5-fluoropyridin-2-yl)-4-[(tetrahydro-1H-pyrrolizin-7a(5H)-ylmethyl)amino]benzene-sulfonamide], at human Nav1.5, the “ratio of Nav1.7 potency:Nav 1.5 potency” value is recorded as 94. For the same compound, the IC50 on human Nav1.7 was found to be 320 nM.

On to `CC1CN2CCCC2(CNc2cc(F)c(S(=O)(=O)Nc3ncc(Cl)s3)cc2Cl)C1` [Ex4-10, 5-chloro-N-(5-chlorothiazol-2-yl)-2-fluoro-4-((((2S,7aR and 2R,7aS)-2-methylhexahydro-1H-pyrrolizin-7a-yl)methyl)-amino)benzene-sulfonamide], for which, at human Nav1.5, the “ratio of Nav1.7 potency:Nav 1.5 potency” value came to 2681. In addition, the IC50 at human Nav1.7 was 10 nM.

For the compound `CC1CN2CCCC2(CNc2ccc(S(=O)(=O)Nc3nccs3)cc2Cl)C1` [Ex4-11, 3-chloro-4-((((2S/7aR and 2R,7aS)-2-methylhexahydro-1H-pyrrolizin-7a-yl)methyl)amino)-N-(thiazol-2-yl)benzenesulfonamide], on human Nav1.5, the “ratio of Nav1.7 potency:Nav 1.5 potency” value was 7180. Further, the IC50 on human Nav1.7 stood at 5 nM.

For `O=S(=O)(Nc1nccs1)c1cc(Cl)c(NCC23CCCN2CCC3)cc1Br` [Ex12-5, 2-bromo-5-chloro-4-(((hexahydro-1H-pyrrolizin-7a-yl)methyl)amino)-N-(thiazol-2-yl)benzenesulfonamide], the “ratio of Nav1.7 potency:Nav 1.5 potency” value at human Nav1.5 came out at 288. In addition, the IC50 at human Nav1.7 worked out at 41 nM.

`N#Cc1cc(NCC23CCCN2CCC3)c(Cl)cc1S(=O)(=O)Nc1nccs1` [Ex12-6, 5-chloro-2-cyano-4-(((hexahydro-1H-pyrrolizin-7a-yl)methyl)amino)-N-(thiazol-2-yl)benzenesulfonamide]: the “ratio of Nav1.7 potency:Nav 1.5 potency” value on human Nav1.5 was 180. On human Nav1.7, the IC50 stood at 95 nM.

As for `Cc1cc(NCC23CCCN2CCC3)c(Cl)cc1S(=O)(=O)Nc1nccs1` [Ex12-7, 5-chloro-4-(((hexahydro-1H-pyrrolizin-7a-yl)methyl)amino)-2-methyl-N-(thiazol-2-yl)benzenesulfonamide], on human Nav1.5, the “ratio of Nav1.7 potency:Nav 1.5 potency” value came to 163. For the same compound, at human Nav1.7, the IC50 is 26 nM.

As for `CCc1cc(S(=O)(=O)Nc2nccs2)c(F)cc1NCC12CCCN1CCC2` [Ex18-7, 5-ethyl-2-fluoro-4-(((hexahydro-1H-pyrrolizin-7a-yl)-methyl)amino)-N-(thiazol-2-yl)-benzenesulfonamide], on human Nav1.5, the “ratio of Nav1.7 potency:Nav 1.5 potency” value amounted to 672. The IC50 at human Nav1.7 came to 19 nM.

Consider `CCc1cc(S(=O)(=O)Nc2ncc(F)s2)c(F)cc1NCC12CCCN1CCC2` [Ex18-8, 5-ethyl-2-fluoro-N-(5-fluorothiazol-2-yl)-4-(((hexahydro-1H-pyrrolizin-7a-yl)-methyl)amino)-benzenesulfonamide], for which, at human Nav1.5, the “ratio of Nav1.7 potency:Nav 1.5 potency” value worked out at 2595. The IC50 at human Nav1.7 amounted to 5 nM.
